# Test results reported in EPA's ToxValDB 9.5 (doi:10.2903/j.efsa.2008.170r).
# Tests used:
# Apis mellifera = conditions: acute; dermal; mortality
# Bird = conditions: chronic/long-term; mortality
# Canidae = conditions: chronic; duration: 1 years; oral; Dog Other; body weight
# Daphnia magna = conditions: chronic/long-term
# Rattus norvegicus = conditions: acute; mortality
# Typhlodromus pyri = conditions: not reported; mortality
smiles,measurement,setting,value
CC(=O)O.CC1CN(C2CCCCCCCCCCC2)CC(C)O1 (configuration not stated) [Dodemorph acetate],LD50,Apis mellifera,> 76.6 µg/piece
same,LD50,Bird,9.4 mg/kg-day
same,NOAEL,Canidae,10 mg/kg-day
same,NOEC,Daphnia magna,0.08 mg/L
same,LC50,"Oncorhynchus mykiss; acute, duration: 96 hours, mortality",1.23 µg/mL
same,NOEC,"Oncorhynchus mykiss; chronic/long-term, duration: 28 days, growth",0.1 mg/L
same,LD50,"Oryctolagus sp.; acute, mortality",21 mg/kg-day
same,NOAEL,"Oryctolagus sp.; developmental, development",40 mg/kg-day
same,LD50,Rattus norvegicus,4100 mg/kg
same,LC50,"Tagia sp.; acute, duration: 14 days, mortality",> 824 mg/kg
same,NOEC,"Tagia sp.; chronic/long-term, duration: 56 days, other",103 mg/kg
same,LEL,Typhlodromus pyri,660 g/ha
